Here are results for eight molecules from ChEMBL document CHEMBL1149932, “DNA - gyrase inhibition and antibacterial activity of fluoro-quinolones: influence of the position of the fluorine(s)” (1992).

The structures appear in SMILES notation. ≈ marks a conversion by molar mass, not a printed value.

Experiment [1] is described as follows: In vitro antibacterial activity expressed as MIC against Clostridium perfringens. The experiment is classed as functional.
In another experiment the test system is Enterococcus faecalis. Put plainly: In vitro antibacterial activity expressed as MIC against Enterococcus faecalis. The experiment is classed as functional.
Experiment [2] has as its target T1, DNA gyrase (Escherichia coli) (UniProt P0AES6+P0AES4). Put plainly: In vitro inhibitory least concentration which show effect against Escherichia coli HR DNA gyrase. The class given is protein-complex assay.
The next experiment deals with Streptococcus pneumoniae. Put plainly: In vitro antibacterial activity expressed as MIC against Streptococcus pneumoniae. The class given is functional.
The subject of a further experiment is Providencia stuartii. Put plainly: In vitro antibacterial activity expressed as MIC against Providencia stuartii II. The experiment is classed as functional.
For experiment [3], the system named is Klebsiella aerogenes. Put plainly: (§1) In vitro antibacterial activity expressed as MIC against Enterobacter aerogenes. The class given is functional.
Experiment [4] relates to Staphylococcus epidermidis. Put plainly: In vitro antibacterial activity expressed as MIC against Staphylococcus epidermidis. The class given is functional.
The subject of another experiment is Staphylococcus aureus. Put plainly: In vitro antibacterial activity expressed as MIC against Staphylococcus aureus. The experiment is classed as functional.
The subject of experiment [5] is Providencia rettgeri. Put plainly: (§2) In vitro antibacterial activity expressed as MIC against Providencia rettgeri. The experiment is classed as functional.
Experiment [6] addresses T1, DNA gyrase (Escherichia coli). Put plainly: In vitro inhibitory concentration which show total effect against Escherichia coli HR DNA gyrase. The class given is protein-complex assay.
A further experiment has as its system Serratia marcescens. Put plainly: In vitro antibacterial activity expressed as MIC against Serratia marcescens. The experiment is classed as functional.
Experiment [7] deals with T1, DNA gyrase (Escherichia coli). Put plainly: In vitro antibacterial activity expressed as MIC against Escherichia coli HR DNA gyrase. The experiment is classed as protein-complex assay.
Experiment [8] has as its system Proteus mirabilis. Put plainly: (§3) In vitro antibacterial activity expressed as MIC against Proteus mirabilis. The class given is functional.
The test system of the next experiment is Pseudomonas aeruginosa. Put plainly: In vitro antibacterial activity expressed as MIC against Pseudomonas aeruginosa. The class given is functional.
Experiment [9] relates to Klebsiella oxytoca. Put plainly: (§4) In vitro antibacterial activity expressed as MIC against Klebsiella oxytoca. The class given is functional.
Experiment [10] relates to Haemophilus influenzae. Put plainly: (§5) In vitro antibacterial activity expressed as MIC against Haemophilus influenzae. The class given is functional.
The test system of the next experiment is Morganella morganii. Put plainly: In vitro antibacterial activity expressed as MIC against Morganella morganii II. The experiment is classed as functional.
Another experiment relates to Escherichia coli. Put plainly: In vitro antibacterial activity expressed as MIC against Escherichia coli. The experiment is classed as functional.
Experiment [11] has as its system Klebsiella aerogenes. Described as §1.
For experiment [12], the system named is Klebsiella oxytoca. Described as §4.
Experiment [13] deals with Haemophilus influenzae. The experiment is described as §5.
Experiment [14] relates to Providencia rettgeri. The experiment is described as §2.
Experiment [15] relates to Proteus mirabilis. The experiment is described as §3.

In the case of `N[C@H]1CCN(c2cc3c(cc2F)c(=O)c(C(=O)O)cn3C2CC2)C1`, the MIC in experiment [1] is 0.25 µg/mL (≈ 0.754 µM); against Enterococcus faecalis, 0.25 µg/mL (≈ 0.754 µM); in the experiment with Streptococcus pneumoniae it was 0.13 µg/mL (≈ 0.392 µM); in the experiment with Providencia stuartii it was 0.03 µg/mL (≈ 0.0905 µM); against Klebsiella aerogenes [3] it was 0.016 µg/mL (≈ 0.0483 µM); in experiment [4], 0.03 µg/mL (≈ 0.0905 µM). Further, the MIC against Staphylococcus aureus was determined as 0.06 µg/mL (≈ 0.181 µM); against Providencia rettgeri [5], 0.5 µg/mL (≈ 1.51 µM); against Serratia marcescens, 0.03 µg/mL (≈ 0.0905 µM); in experiment [7], 0.005 µg/mL (≈ 0.0151 µM); in the experiment on Proteus mirabilis [8] it was 0.03 µg/mL (≈ 0.0905 µM); in the experiment on Pseudomonas aeruginosa, 0.25 µg/mL (≈ 0.754 µM). For the same molecule, the MIC was 0.03 µg/mL (≈ 0.0905 µM) with Klebsiella oxytoca [9], 0.002 µg/mL (≈ 0.00604 µM) in the experiment on Haemophilus influenzae [10], 0.016 µg/mL (≈ 0.0483 µM) in the experiment with Morganella morganii and 0.008 µg/mL (≈ 0.0241 µM) in the experiment with Escherichia coli. The same molecule yielded an IC0 in [2] of 0.24 µg/mL. The molecule also came in with an IC100 in experiment [6] of 20 µg/mL.

Turning to `N[C@H]1CCN(c2ccc3c(=O)c(C(=O)O)cn(C4CC4)c3c2F)C1`, the MIC in experiment [1] came out at 0.5 µg/mL (≈ 1.51 µM); in the experiment on Enterococcus faecalis it was 0.25 µg/mL (≈ 0.754 µM); against Streptococcus pneumoniae it was 0.5 µg/mL (≈ 1.51 µM); in the experiment on Providencia stuartii it was 0.06 µg/mL (≈ 0.181 µM); against Klebsiella aerogenes [3] it was 0.03 µg/mL (≈ 0.0905 µM); in experiment [4], 0.125 µg/mL (≈ 0.377 µM). Also, the MIC in the experiment on Staphylococcus aureus came out at 0.06 µg/mL (≈ 0.181 µM); in the experiment on Providencia rettgeri [5], 1 µg/mL (≈ 3.02 µM); against Serratia marcescens, 0.03 µg/mL (≈ 0.0905 µM); in experiment [7], 0.009 µg/mL (≈ 0.0272 µM); against Proteus mirabilis [8], 0.03 µg/mL (≈ 0.0905 µM); against Pseudomonas aeruginosa, 0.25 µg/mL (≈ 0.754 µM). Further, the MIC against Klebsiella oxytoca [9] amounted to 0.06 µg/mL (≈ 0.181 µM); against Haemophilus influenzae [10], 0.007 µg/mL (≈ 0.0211 µM); in the experiment with Morganella morganii, 0.015 µg/mL (≈ 0.0453 µM); against Escherichia coli, 0.007 µg/mL (≈ 0.0211 µM). In [2], this molecule gave an IC0 of 0.32 µg/mL. The same molecule displayed an IC100 in experiment [6] of 10 µg/mL.

As for `N[C@H]1CCN(c2cc(F)c3c(=O)c(C(=O)O)cn(C4CC4)c3c2F)C1`, the MIC stood at 1 µg/mL (≈ 2.86 µM) in experiment [1]; 4 µg/mL (≈ 11.5 µM) against Enterococcus faecalis; 4 µg/mL (≈ 11.5 µM) against Streptococcus pneumoniae; 0.5 µg/mL (≈ 1.43 µM) in the experiment on Providencia stuartii; 0.25 µg/mL (≈ 0.716 µM) against Klebsiella aerogenes [3]; 0.5 µg/mL (≈ 1.43 µM) in experiment [4]. The MIC in the experiment with Staphylococcus aureus was 1 µg/mL (≈ 2.86 µM); with Providencia rettgeri [5], 8 µg/mL (≈ 22.9 µM); in the experiment on Serratia marcescens, 0.25 µg/mL (≈ 0.716 µM); in experiment [7], 0.078 µg/mL (≈ 0.223 µM); against Proteus mirabilis [8], 0.13 µg/mL (≈ 0.372 µM); against Pseudomonas aeruginosa, 2 µg/mL (≈ 5.73 µM). The MIC was 0.5 µg/mL (≈ 1.43 µM) in the experiment on Klebsiella oxytoca [9], 0.06 µg/mL (≈ 0.172 µM) with Haemophilus influenzae [10], 0.06 µg/mL (≈ 0.172 µM) in the experiment on Morganella morganii and 0.06 µg/mL (≈ 0.172 µM) with Escherichia coli. For the same molecule, in experiment [2], the IC0 turned out to be 0.32 µg/mL. Also, the IC100 in [6] amounted to 10 µg/mL.

Regarding `N[C@H]1CCN(c2cc(F)c3c(=O)c(C(=O)O)cn(C4CC4)c3c2)C1`, the MIC against Enterococcus faecalis came out at 16 µg/mL (≈ 48.3 µM); against Streptococcus pneumoniae, 4 µg/mL (≈ 12.1 µM); in the experiment with Providencia stuartii, 1 µg/mL (≈ 3.02 µM); in the experiment on Klebsiella aerogenes [3], 0.5 µg/mL (≈ 1.51 µM); in [4], 8 µg/mL (≈ 24.1 µM); with Staphylococcus aureus, 8 µg/mL (≈ 24.1 µM). Further, the MIC against Providencia rettgeri [5] amounted to 16 µg/mL (≈ 48.3 µM); against Serratia marcescens, 0.5 µg/mL (≈ 1.51 µM); in experiment [7], 0.156 µg/mL (≈ 0.471 µM); in the experiment on Proteus mirabilis [8], 0.5 µg/mL (≈ 1.51 µM); against Pseudomonas aeruginosa, 4 µg/mL (≈ 12.1 µM); against Klebsiella oxytoca [9], 1 µg/mL (≈ 3.02 µM). For the same molecule, the MIC in the experiment with Haemophilus influenzae [10] amounted to 0.13 µg/mL (≈ 0.392 µM); against Morganella morganii, 0.25 µg/mL (≈ 0.754 µM); against Escherichia coli, 0.25 µg/mL (≈ 0.754 µM). For the same molecule, the IC0 in experiment [2] worked out at 0.64 µg/mL. This molecule gave an IC100 in experiment [6] of 20 µg/mL.

For `N[C@H]1CCN(c2ccc3c(=O)c(C(=O)O)cn(C4CC4)c3c2)C1`, the MIC in the experiment on Enterococcus faecalis was determined as 4 µg/mL (≈ 12.8 µM); against Streptococcus pneumoniae it was 2 µg/mL (≈ 6.38 µM); in the experiment with Providencia stuartii, 1 µg/mL (≈ 3.19 µM); with Klebsiella aerogenes [3], 0.06 µg/mL (≈ 0.191 µM); in [4], 0.25 µg/mL (≈ 0.798 µM); against Staphylococcus aureus it was 0.5 µg/mL (≈ 1.6 µM). The MIC in the experiment with Providencia rettgeri [5] came to 8 µg/mL (≈ 25.5 µM); in the experiment on Serratia marcescens it was 0.5 µg/mL (≈ 1.6 µM); in experiment [7], 0.009 µg/mL (≈ 0.0287 µM); against Proteus mirabilis [8], 0.13 µg/mL (≈ 0.415 µM); against Pseudomonas aeruginosa, 0.5 µg/mL (≈ 1.6 µM); in the experiment on Klebsiella oxytoca [9], 0.25 µg/mL (≈ 0.798 µM). For the same molecule, the MIC against Haemophilus influenzae [10] was determined as 0.08 µg/mL (≈ 0.255 µM); in the experiment on Morganella morganii, 0.13 µg/mL (≈ 0.415 µM); with Escherichia coli it was 0.03 µg/mL (≈ 0.0957 µM). Besides, the IC0 in experiment [2] was found to be 0.32 µg/mL. This molecule also returned an IC100 in [6] of 20 µg/mL.

On to `CCn1cc(C(=O)O)c(=O)c2cc(F)c(N3CCN(C)CC3)cc21`, for which, in experiment [6], the IC0 was 0.64 µg/mL and the IC100 was 20 µg/mL. In experiment [7], this molecule gave an MIC of 0.019 µg/mL (≈ 0.057 µM).

For `O=C(O)c1cn(C2CC2)c2cc(N3CCNCC3)c(F)cc2c1=O` [CIPROFLOXACIN], the MIC amounted to 0.5 µg/mL (≈ 1.51 µM) against Enterococcus faecalis; 0.03 µg/mL (≈ 0.0905 µM) in the experiment with Klebsiella aerogenes [11]; 0.25 µg/mL (≈ 0.754 µM) in the experiment on Streptococcus pneumoniae; 0.03 µg/mL (≈ 0.0905 µM) in the experiment with Providencia stuartii; 0.06 µg/mL (≈ 0.181 µM) in the experiment on Klebsiella oxytoca [12]; 0.5 µg/mL (≈ 1.51 µM) in experiment [4]. Also, the MIC in the experiment with Staphylococcus aureus stood at 0.25 µg/mL (≈ 0.754 µM); in the experiment on Serratia marcescens, 0.03 µg/mL (≈ 0.0905 µM); in [7], 0.009 µg/mL (≈ 0.0272 µM); against Haemophilus influenzae [13], 0.03 µg/mL (≈ 0.0905 µM); against Providencia rettgeri [14], 0.5 µg/mL (≈ 1.51 µM); with Morganella morganii, 0.08 µg/mL (≈ 0.241 µM). The MIC against Proteus mirabilis [15] amounted to 0.008 µg/mL (≈ 0.0241 µM). This molecule also yielded an IC0 in experiment [6] of 0.12 µg/mL. The IC100 in experiment [6] came out at 10 µg/mL.

With `CCn1cc(C(=O)O)c(=O)c2ccc(C)nc21`, in [6], the IC0 was determined as 25 µg/mL and the IC100 stood at 200 µg/mL. Also, the MIC in experiment [7] came out at 2.5 µg/mL (≈ 10.8 µM).
